According to article PMC7139479, “Insights into Interactions of Flavanones with Target Human Respiratory Syncytial Virus M2-1 Protein from STD-NMR, Fluorescence Spectroscopy, and Computational Simulations” (International Journal of Molecular Sciences, 2020):

What was measured:
hRSV M2-1 protein [1] = molecular target: T1, hRSV M2-1 protein (Human respiratory syncytial virus A, UniProt P04545); assay: STD-NMR of M2-1/flavanone binding; set-up: species or system human Respiratory Syncytial Virus (hRSV A2 strain); conditions: 298 K, 50 µM protein, 250 µM flavonoid
T1 construct: allowing the expression of the full-length M2-1 with N-terminal fused to a His6-tag; made in house; host or cells: Escherichia coli BL21 RIL
T1 sequence (P04545 whole entry, the tested form may be a part): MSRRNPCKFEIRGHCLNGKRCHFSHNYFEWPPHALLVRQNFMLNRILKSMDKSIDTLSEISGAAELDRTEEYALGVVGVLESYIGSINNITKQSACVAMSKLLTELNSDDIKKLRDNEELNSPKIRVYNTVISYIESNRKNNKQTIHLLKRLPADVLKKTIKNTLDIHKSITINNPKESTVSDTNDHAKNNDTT
Description: STD-NMR experiments were performed on a Bruker Avance III 600.13 MHz equipped with a triple resonance 5 mm cryoprobe, having the pulse field gradient along the Z axis. All data were analyzed with Bruker Topspin v3.5. A total concentration of 50 μM hRSV M2-1 protein in 50 mM K2HPO4/KH2PO4 buffer (pH 7.4) containing 150 mM NaCl and 1 mM DTT at 80/20% H2O/D2O was used for all measurements. The concentration of the flavonoids used in binding experiments was of 250 μM. The on- and off-resonance frequencies were set at −0.5 and 40 ppm, providing the best profile of protein saturation and STD effect. […] A total of 16 scans with 32 loop counters were collected with 4 dummy scans. For the suppression of the protein signals, it was applied a spinlock filter of 30 ms with 0.776 W. All measurements were performed at 298 K (25 °C) and it was used a flavonoid stock solution solubilized in deuterated DMSO-d6.
The STD effect ( ISTD ) on a given proton of the ligand was calculated according to the following equation [43, 44]:(1) ISTD=Ioff-resonance−Ion-resonance/I off-resonance where Ion-resonance and Ioff-resonance are the intensities of the ligand signals in the on- and off-resonance spectrum, respectively. The proton of the flavonoid with the highest STD effect (magnetization transfer maximum) was equal to 100% and the others protons were normalized according to this signal. The identification of ^1H NMR signals of the flavonoids at buffer solution [50 mM K2HPO4/KH2PO4 buffer (pH 7.4) at 80/20% H2O/D2O containing 150 mM NaCl and 1 mM DTT] was assisted by the resonance assignment from Chemical Book database (www.chamicalbook.com) under access code 520-33-2.

hRSV M2-1 protein [2] = molecular target: T1, hRSV M2-1 protein; assay: Fluorescence quenching of M2-1 by flavanones (double-log plot, thermodynamic analysis); assay type: binding, human Respiratory Syncytial Virus (hRSV A2 strain); conditions: for Enthalpy change ΔH: Van't Hoff equation from Kb at 288 and 298 K
Description: The fluorescence measurements were performed on a steady-state ISS-PC1 spectrofluorimeter with temperature control (thermal bath Neslab RTE-221) and equipped with quartz cuvette of 10 mm optical path length. The excitation and emission bandwidths were set at 4 and 8 nm, respectively. The excitation wavelength was of 290 nm and the emission spectra were reported between 295 and 500 nm with 10 accumulations for each collected point. The emission spectrum was corrected for the background fluorescence from the buffer solution and for inner filter effect promoted by the flavonoids. The protein-ligand interaction measures were performed by collecting the fluorescence spectra of the protein in the absence of ligand (2 mL at 6 μM) and checking for quenching of intensities after addition of increasing concentrations of flavonoids, at 288 and 298 K (15 and 25 °C). The flavonoids’ concentrations varied from 0 to 26 μM in the final solution, with the emission of the hRSV M2-1 protein analyzed at 320 nm.
For the data analysis, it was hypothesized that the binding sites of the flavonoids on the M2-1 protein are equal and independent. Thus, the binding constant (Kb) and the number of binding sites (n) can be calculated using the following equation [46]:(2) log(F0−F/F)=n·logKb+n·log1/([LT]−(F0−F/F0)[PT]) where F0 and F are the fluorescence intensity of the M2-1 protein in the absence and in the presence of the flavonoids, respectively. [PT] and [LT] is the total concentration of M2-1 protein and ligand (flavonoids), respectively. The values of Kb and n for the M2-1/flavonoids complex are obtained from the ordinate and slope of the linear fitting from the double-log plot log((F0 − F)/F) & log(1/([LT] − ((F0 − F)/F0)[PT])), respectively.
In order to investigate the driving forces responsible for the binding of the flavonoids hesperetin and hesperidin to the M2-1 protein, the enthalpy change (ΔH) of this interaction was calculated from the Van’t Hoff equation:(3) lnKb2/Kb1=−ΔH/R(1/T2−1/T1) where Kb1 and Kb2 are binding constants at the absolute temperatures T1 and T2, which were 288 and 298 K (15 and 25 °C), respectively. R corresponds to the universal gas constant ([…]). The Gibbs free energy (ΔG) and entropy changes (ΔS) for the M2-1/flavonoids complex were calculated from the following equations:(4) ΔG=−R·T·lnKb (5) ΔS=ΔH−ΔG/T

RSV = tested on: RSV; set-up: method as in earlier work; conditions: against RSV; ref 28 (Kaul et al., 1985); cited from earlier work

Compound | STD effect, 1H protons on B-ring (normalized to highest signal) (hRSV M2-1 protein [1]) [%] | Gibbs free energy change ΔG (hRSV M2-1 protein [2]; 288 K) [kcal/mol] | Number of binding sites n (hRSV M2-1 protein [2]; 288 K) | T·ΔS (hRSV M2-1 protein [2]; 288 K) [kcal/mol] | Gibbs free energy change ΔG (hRSV M2-1 protein [2]; 298 K) [kcal/mol] | Number of binding sites n (hRSV M2-1 protein [2]; 298 K) | T·ΔS (hRSV M2-1 protein [2]; 298 K) [kcal/mol] | Enthalpy change ΔH (hRSV M2-1 protein [2]) [kcal/mol] | Anti-replicative activity (RSV) [%] | STD effect, hydrogens on A-ring (normalized to highest signal) (hRSV M2-1 protein [1]) [%]
COc1ccc([C@@H]2CC(=O)c3c(O)cc(O[C@@H]4O[C@H](CO[C@@H]5O[C@@H](C)[C@H](O)[C@@H](O)[C@H]5O)[C@@H](O)[C@H](O)[C@H]4O)cc3O2)cc1O [HSD, Hesperidin] | 96 | -5.2 | 0.89 | 3.5 | -5.4 | 0.93 | 3.7 | -1.7 |  | 
COc1ccc([C@@H]2CC(=O)c3c(O)cc(O)cc3O2)cc1O [HST, Hesperetin] | 72 | -6.5 | 1.05 | -22.5 | -5.7 | 1.04 | -23.3 | -29.0 | 88 | 100
